In test [1] the target is T1, recombinant rat TRAP produced using Baculovirus expression system (BacTRAP) (Rattus norvegicus, UniProt P29288).
T1 construct: made in house
T1 sequence (P29288 23-327): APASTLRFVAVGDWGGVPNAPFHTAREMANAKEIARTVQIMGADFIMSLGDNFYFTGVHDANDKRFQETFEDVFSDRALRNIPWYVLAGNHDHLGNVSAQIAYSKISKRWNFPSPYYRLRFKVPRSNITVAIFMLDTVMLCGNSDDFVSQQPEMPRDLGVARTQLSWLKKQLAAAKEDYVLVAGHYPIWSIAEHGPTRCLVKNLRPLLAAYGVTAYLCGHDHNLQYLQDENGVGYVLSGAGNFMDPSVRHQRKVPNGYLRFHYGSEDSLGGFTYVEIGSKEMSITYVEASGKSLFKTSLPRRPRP
Description: Substrate specificity of recombinant TRAP (phosphatase assay). Format: biochemical. The procedure: (§1) The substrates were dissolved in incubation medium containing the same buffer as in the pNPP-assay. […] A phosphate standard curve […] was always run in parallel. […] In order to validate whether the structural alterations induced by proteolytic cleavage of the monomeric TRAP was generally affecting known substrates for TRAP and not restricted to the non-physiological substrate pNPP, we surveyed a number of different phosphoaminoacids, phosphopeptides and the phosphoprotein osteopontin as substrates for the TRAPs (See Table II).

Test [2] addresses T2, TRAP isolated from rat bone (BoneTRAP) (Rattus norvegicus, UniProt P29288).
T2 construct: from tissue; host or cells: long bones of 3 week old Sprague Dawley rats
T2 sequence (P29288 23-327): T1 sequence (P29288 23-327)
T2 sequence (P29288 184-327): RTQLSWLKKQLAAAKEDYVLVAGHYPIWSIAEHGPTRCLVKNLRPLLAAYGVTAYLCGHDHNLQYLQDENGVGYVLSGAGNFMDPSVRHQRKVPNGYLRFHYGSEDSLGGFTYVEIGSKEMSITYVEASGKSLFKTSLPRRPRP
Put plainly: Substrate specificity of bone TRAP (phosphatase assay). Format: biochemical. Conditions: for Ratio Bone/Bac: Kcat/Km BoneTRAP over BacTRAP. The procedure:
as §1

Test [3] deals with T3, rat bone TRAP (Rattus norvegicus, UniProt P29288).
T3 construct: from tissue; host or cells: long bones of 3 week old Sprague Dawley rats
T3 sequence (P29288 23-327): T1 sequence (P29288 23-327)
T3 sequence (P29288 184-327): T2 sequence (P29288 184-327)
Put plainly: Preincubation with reducing agents, bone TRAP. Format: biochemical. The procedure: (§2) P-nitrophenylphosphosphatase activity was assayed in 96-well plates using the p-nitrophenylphosphate (pNPP) as substrate in the incubation medium (150 μl) containing (final concentrations); 10 mM pNPP, 0.1 M sodium acetate pH 5.8, 0.15 M KCl, 0.1% Triton X-100, 10 mM sodium tartrate, 1 mM ascorbic acid and 0.1 mM FeCl3. The p-nitrophenol liberated after 1 hour of incubation at 37° C. was converted into p-nitrophenylate by the addition of 100 μl of 0.3 M NaOH, and the absorbance was read at 405 nm. For absorbance reading a Spectramax 250 spectrophotometer (Molecular Devices, Sunnyvale, Calif.) was used.
(§3) c) BaculoTRAP digested with papain or trypsin were compared with undigested baculoTRAP and bone TRAP. Ascorbic acid and FeCl3 were used as reducing agents during preincubation of TRAP for indicated time intervals in a total volume of 70 μl with (final concentrations); 1 mM ascorbic acid, 0.1 mM FeCl3, 0.15 M KCl, 10 mM sodium tartrate, 0.1% Triton X-100. Except for a substrate incubation time of 10 min, TRAP activity was measured after the addition of 80 μl of substrate solution as described under Materials and Methods.

The target of test [4] is T4, intact recombinant TRAP (baculoTRAP) (Rattus norvegicus, UniProt P29288).
T4 construct: made in house
T4 sequence (P29288 23-327): T1 sequence (P29288 23-327)
Put plainly: Preincubation with reducing agents, intact recombinant TRAP. Format: biochemical. Particulars: ascorbate 1 mM in the presence of 0.1 mM FeCl3. The procedure: as §2, §3

In test [5] the target is T5, recombinant rat TRAP (BacTRAP) (Rattus norvegicus, UniProt P29288).
T5 construct: made in house
T5 sequence (P29288 23-327): T1 sequence (P29288 23-327)
Description: pNPP hydrolysis by untreated recombinant TRAP. Format: biochemical. The procedure: as §2
(§4) 1 U of p-nitrophenylphosphatase activity corresponds to 1 μmole of p-nitrophenol liberated per minute at 37° C. […] The substrates were dissolved in incubation medium containing the same buffer as in the pNPP-assay. After 1 hour of incubation (final volume 50 μl) at 37° C. the assay was stopped by addition of 50 μl of color reagens (0.12% Malachite-green in 3 M H2SO4/7.5% ammomium molybdate/11% Tween-20; 10:2.5:0.2). A phosphate standard curve […] was always run in parallel. After color development for 10 min the absorbance at 630 nm was measured using a Spectramax 250 spectrophotometer.

In test [6] the test system is BacTRAP + trypsin. Description: pNPP hydrolysis by trypsin-digested recombinant TRAP. Format: biochemical, rat. As to the method:
as §2
1 U of p-nitrophenylphosphatase activity corresponds to 1 μmole of p-nitrophenol liberated per minute at 37° C. […] The substrates were dissolved in incubation medium containing the same buffer as in the pNPP-assay. After 1 hour of incubation (final volume 50 μl) at 37° C. the assay was stopped by addition of 50 μl of color reagens (0.12% Malachite-green in 3 M H2SO4/7.5% ammomium molybdate/11% Tween-20; 10:2.5:0.2). […] After color development for 10 min the absorbance at 630 nm was measured using a Spectramax 250 spectrophotometer. […]
(§5) Incubation was performed at room temperature for 1 h with the suspension kept well mixed during the reaction period. The proteolytic digestions above were stopped by centrifugation and the cleavage products of TRAP in the supernatant were further analyzed. […]

In test [7] the target is T6, BacTRAP + papain (Rattus norvegicus, UniProt P29288).
T6 construct: made in house; host or cells: recombinant Baculovirus-infected cells; then digested with papain-agarose
T6 sequence (P29288 23-327): T1 sequence (P29288 23-327)
T6 sequence (P29288 184-327): T2 sequence (P29288 184-327)
Put plainly: pNPP hydrolysis by papain-digested recombinant TRAP. Format: biochemical. As to the method:
as §2, §4
Proteolytic Digestion of TRAP 25 μg baculoTRAP or bone TRAP were digested with […] papain-agarose in 500 μl of incubation solution; 10 mM sodium acetate, pH 4.6, 0.1% Triton X-100 and 2 mM DTT. Incubation was performed at room temperature for 24 h, with constant mixing of the gel. 25 μg baculo TRAP or bone TRAP were digested with 100 μl (5units) trypsin-agarose in 500 μl of incubation solution; 10 mM Tris pH 7.0 and 0.1% Triton X-100.
Incubation was performed at room temperature for 1 h with the suspension kept well mixed during the reaction period. The proteolytic digestions above were stopped by centrifugation and the cleavage products of TRAP in the supernatant were further analyzed. Digestion of baculo TRAP or bone TRAP with cathepsin B were performed at (final concentrations); 10 ng TRAP/μl, 0.4 mU cathepsin B/μl, 2 mM DTT, 50 mM sodium acetate and 1 mM EDTA, pH 5.5. The incubations were performed at 37° C. for 24 h and digestions were stopped with protease inhibitor cocktail Complete according to the instructions of the manufacturer.

The test system of test [8] is BacTRAP + Cath. B. Put plainly: pNPP hydrolysis by cathepsin B-digested recombinant TRAP. Format: biochemical, rat. The procedure: as §2
1 U of p-nitrophenylphosphatase activity corresponds to 1 μmole of p-nitrophenol liberated per minute at 37° C. […] The substrates were dissolved in incubation medium containing the same buffer as in the pNPP-assay. After 1 hour of incubation (final volume 50 μl) at 37° C. the assay was stopped by addition of 50 μl of color reagens (0.12% Malachite-green in 3 M H2SO4/7.5% ammomium molybdate/11% Tween-20; 10:2.5:0.2). […] After color development for 10 min the absorbance at 630 nm was measured using a Spectramax 250 spectrophotometer.
as §5

For test [9], the target named is T7, BoneTRAP (Rattus norvegicus, UniProt P29288).
T7 construct: from tissue; host or cells: long bones of 3 week old Sprague Dawley rats
T7 sequence (P29288 23-327): T1 sequence (P29288 23-327)
T7 sequence (P29288 184-327): T2 sequence (P29288 184-327)
Description: pNPP hydrolysis by bone TRAP. Format: biochemical. Conditions: BoneTRAP untreated. As to the method: Bone TRAP was purified from the long bones of 40 3 week old Sprague Dawley rats. All operations were performed at 4° C. The dissected bones, free from soft tissue, were cut into small pieces and placed in homogenization solution with protease inhibitors (3 ml/g bone); 0.15 M KCl, 0.1% Triton X-100, Pefabloc (1 mg/ml), Pepstatin A (10 μg/ml), E-64 (10 μg/ml) and 5 mM EDTA. A Polytron homogenizer (Brinkman Instruments Westbury, N.Y.) was used for homogenization during 10 seconds, with 1 minute intervals, until a homogenous suspension was achieved. The homogenate was cleared by centrifugation at 3,200×g for 30 min. 5 % protamine sulfate was added dropwise to the supernatant during continous stirring to a final concentration of 0.5%, with further stirring for 30 min. […]
as §2, with “used. […]” for “used.”

[10] abbreviates: Kcat/Km relative to pT = 1.0, BacTRAP.
Setting [11] is: Kcat/Km relative to pT = 1.0, BoneTRAP.

The record followed here is US6451548B1, “Methods for screening for specific inhibitors of trap and identifying compounds for treatment of diseases or conditions resulting in increased bone resorption using activated TRAP” (Biovitrum AB, priority 1998, dated 2002).

Where two headings read alike, the source gives them in different places. Where no end group is shown, it is not given here. [ ]: non-standard residue; d: D form. pY = N[C@@H](Cc1ccc(OP(=O)(O)O)cc1)C(=O)O; pT = C[C@@H](OP(=O)(O)O)[C@H](N)C(=O)O; pS = N[C@@H](COP(=O)(O)O)C(=O)O

With `C[C@@H](OP(=O)(O)O)[C@H](N)C(=O)O` [pT, Phosphothreonine], the “Ratio (BacTRAP)” value in test [1] (setting [10]) is on record as 1.0. For the same compound, in [2], the “Ratio Bone/Bac” value was determined as 14. Also, in [2] (setting [11]), the “Ratio (BoneTRAP)” value is on record as 1.0.
As to RRA[pT]VA, the “Ratio (BacTRAP)” value in test [1] (setting [10]) stood at 2.8. Also, the “Ratio Bone/Bac” value in test [2] is given as 5.0. For the same compound, the “Ratio (BoneTRAP)” value in test [2] (setting [11]) stood at 10.
On the same counts, the results for FRI[pS]HELDS are 14, 15 and 15.
Take EDEE[pS]EDEE: the “Ratio (BacTRAP)” value in test [1] (setting [10]) is listed as 50. Besides, the “Ratio Bone/Bac” value in test [2] came to 4.2. For the same compound, the “Ratio (BoneTRAP)” value in [2] (setting [11]) is reported as 15.
For DADE(pY)LIPQQG, in that order: 475, 18 and 640.
Consider END[pY]INASL, for which the “Ratio (BacTRAP)” value in test [1] (setting [10]) was found to be 375. The “Ratio Bone/Bac” value in [2] is 10. Moreover, the “Ratio (BoneTRAP)” value in test [2] (setting [11]) is 280.
For `O=C1O[C@H]([C@@H](O)CO)C(O)=C1O` [ascorbate, ascorbic acid], the figures for the “effect of prolonged pre-incubation on TRAP activity” value in [3] (ascorbate 1 mM in the presence of 0.1 mM FeCl3) and in test [4] were “time-dependent inactivation” and “did not show this tendency for inactivation”, respectively. In test [3] (pre-incubation with ascorbate 1 mM, 0.1 mM FeCl3), the “time to maximal activation” value is at most 10 min.
`N[C@@H](Cc1ccc(OP(=O)(O)O)cc1)C(=O)O` [pY, phosphotyrosine]: the “Ratio (BacTRAP)” value in test [1] (setting [10]) was 250. Besides, in test [2], the “Ratio Bone/Bac” value was found to be 19. Moreover, the “Ratio (BoneTRAP)” value in [2] (setting [11]) came out at 350.
Take `O=[N+]([O-])c1ccc(OP(=O)(O)O)cc1` [pNPP, p-nitrophenylphosphate]: the Km – broadly, the substrate concentration at which the rate is half of its maximum – was determined as 3100 µM in test [5] (pNPP hydrolysis, BacTRAP untreated); 2100 µM in [6]; 1000 µM in [7] (pNPP hydrolysis, BacTRAP + papain); 900 µM in [8]; 1000 µM in [9]. Moreover, in test [5] (recombinant TRAP as isolated), the “pH-optimum of pNPP hydrolysis” value is 4.5-5.0 pH. Moreover, in [7] (papain-cleaved recombinant TRAP compared to untreated monomeric TRAP), the “increase in the ratio kcat/Km” value stood at 10 fold. For the same compound, the “decrease in the Km for pNPP” value in [7] (papain-cleaved vs untreated recombinant TRAP) is on record as 3 fold. In test [7] (recombinant TRAP cleaved with papain), the “optimal pH of pNPP hydrolysis” value is recorded as 5.5-6.0 pH. Also, the “Ratio (BacTRAP)” value in [1] stood at 1075. In test [2], the “Ratio (BoneTRAP)” value was 690. For the same compound, the “Ratio Bone/Bac” value in test [2] amounted to 8.8.
For `N[C@@H](COP(=O)(O)O)C(=O)O` [pS, phosphoserine], the “Ratio (BacTRAP)” value in test [1] (setting [10]) was 1.2. The “Ratio Bone/Bac” value in test [2] is recorded as 22. Moreover, the “Ratio (BoneTRAP)” value in test [2] (setting [11]) amounted to 2.0.
On the same counts, the results for “OPN: acidic phospho-seryl protein osteopontin purified from bovine milk” are 1875, 17 and 2360.
